Here are results for seven molecules from US20240293558A1, “KRAS INHIBITOR CONJUGATES” (Erasca, Inc., priority 2021, published 2024).

Assay [1] deals with T1, KRas G12D fused to HiBiT peptide (Homo sapiens, UniProt P01116, G12D).
T1 construct: endogenous in cells; host or cells: AsPC-1 HiBiT knock-in single clone (Cas9 RNP + ssODN)
The assay can be described thus: ASPC-1 HiBit assay to determine G12D degradation. Type of assay: cell-based. The conditions noted are these: AsPC-1 HiBiT cells, 24-hour incubation; read-out: ASPC-1 HiBit DC50 (C). The procedure: Compounds presented herein induce degradation of the KRas G12D (KRasG12D) upon treatment of engineered cancer cell line.
The degradation of the KRasG12D in cellular environment was measured using engineered homozygous KRasG12D AsPC-1 cell line in which KRas G12D was fused to luminescent HiBiT peptide at the N-terminal. The small (1.3 kDa) HiBiT peptide complements with high affinity to a larger (18 kDa) subunit evolved from NanoLuc (termed LgBiT). The resulting complex (i.e., reconstituted luciferase enzyme) generates bright luminescence that translates to high sensitivity (1 amol), broad dynamic range (four orders of magnitude), and rapid kinetics for real time quantitation.
To generate HiBit KRasG12D knock-in cell line, sgRNA (SEQ. ID NO: 1) and ssODN (SEQ. ID NO: 2) were designed and synthesized at GenScript.
RNP complex was generated by mixing of 100 pmol of Cas9 protein to PCR tubes containing 300 pmol sgRNA incubating the resultant complex at room temperature for 20 min. […] ssODN was added to RNP complex slowly and RNP-ssODN complex was incubated at room temperature for 10 min. RNP-ssODN complex was mixed with […] of AsPC-1 cells (1×10^6 cells total) and electroporated using Nucleofactor (Program CM-150). Cells were then incubated at ambient temperature for 5 min and transferred to a six-well plate containing 2 ml growth medium.
To select pools with the highest luminescence signal, 10^4 cells of parental AsPC-1 and transfected pools were plated in solid white 384-well tissue culture plates. 24 hours after seeding, HiBiT was detected using the Nano-Glo HiBiT Lytic Detection System (Promega) following manufacturer's instructions. Briefly, […] of Nano-Glo HiBiT Lytic Detection Reagent was added directly to the cells and mixed by inversion before recording luminescence on an Envision (Perkin-Elmer) with 0.5 s integration time.
Single clones were isolated from stable pool by limited dilution method and presence of HiBiT knock-in was verified by TA cloning and subsequent sequencing. Additionally, western blotting analysis was conducted to confirm selection of single clones with high luminescence signal.
For DC50S measurements, AsPC-1 HiBiT single clone cells were grown in RPMI 1640 medium (Invitrogen 22400-089) supplemented with 10% fetal bovine serum. Cells were seeded in 384-well tissue culture plates at a density of 7,000 cells/well and allowed to attach for 24 hours.
Test compounds were distributed directly into assay plate with the adjustment for DMSO concentration using Tecan HP D300e. For most of the experiments, the final concentration of compounds starts from 10 μM, 3-fold dilution dose response and 10 doses. […] DMSO final concentration is 1%. Each concentration of exemplary compound was tested as singleton. The negative control wells were cells with DMSO only, and the positive control wells were cells with […] inhibitor.
Following 24-hour incubation with the compounds plate and Nano-Glo® HiBiT Lytic reagents were equilibrated to room temperature. 20 μL of HiBiT Lytic reagent were added to each well. The assay plate was incubated on digital microplate shaker (350 rpm) for 20 min followed by centrifugation at 500 g for 1 min. Luminescence was recorded using Envision (Perkin-Elmer) using aperture 384-L1 with 0.1 s integration time.
HiBiT signal are used to calculate the % degradation at given compound concentration using the following formula:
% Degradation=(1−(Sample HiBiT signal−Ave Min signal)/(Ave Max signal−Ave Min signal))*100%
For DC50 calculation, the data with the hook effect were removed first and DC50S was reported using a 4-parameter fit of dose response curve using GraphPad in those cases where maximum % degradation was >50% and Minimal % degradation was <50%. The decrease in DC50 reflects that the exemplary compound led to a higher level of degradation of KRasG12D than another exemplary compound at specific timepoint of treatment of cancer cell line. […]
A general note: With HiBiT, luminescence reflects the tagged protein that the partner subunit can reach.

For assay [2], the target named is T2, KRAS (WT) (Homo sapiens, UniProt P01116).
T2 construct: Biotinylated KRAS protein amino acids 1-169 (produced at Erasca); made in house
T2 sequence (P01116 1-169 isoform P01116-2): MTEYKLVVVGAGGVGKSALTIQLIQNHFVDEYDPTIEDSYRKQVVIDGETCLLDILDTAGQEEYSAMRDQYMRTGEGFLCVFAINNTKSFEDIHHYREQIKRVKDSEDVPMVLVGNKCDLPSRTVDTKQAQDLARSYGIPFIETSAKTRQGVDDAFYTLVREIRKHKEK
Put plainly: In-vitro RAS-RAF binding assay (RRB), HTRF/FRET. Type of assay: biochemical. The conditions noted are these: read-out: Inhibition of RAS-RAF Binding (in-vitro) KRAS (WT) IC50. Summed up:
(§1)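 Biotinylated KRAS 1-169 (streptavidin-terbium donor, 30 nM) and GST-cRAF RBD (anti-GST d2 acceptor, 30 nM) in HEPES pH 7.5, NaCl, MgCl2, DTT buffer. After compound incubation, SOS1 catalytic domain plus GTPgS drive 60 min nucleotide exchange. HTRF FRET read at equilibrium, in duplicate.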
In general terms: TR-FRET usually uses a lanthanide donor and a delayed reading to cut background.

The target of assay [3] is KRAS G12D (Homo sapiens, UniProt P01116, G12D). Put plainly: In-vitro RAS-RAF binding assay (RRB), HTRF/FRET. Type of assay: biochemical. Conditions: read-out: Inhibition of RAS-RAF Binding (in-vitro) KRAS (G12D) IC50. Further details: Biotinylated KRAS protein amino acids 1-169 (produced at Erasca); made in house. Summed up: as §1
Sequence of KRAS G12D (P01116 1-169 isoform P01116-2 G12D): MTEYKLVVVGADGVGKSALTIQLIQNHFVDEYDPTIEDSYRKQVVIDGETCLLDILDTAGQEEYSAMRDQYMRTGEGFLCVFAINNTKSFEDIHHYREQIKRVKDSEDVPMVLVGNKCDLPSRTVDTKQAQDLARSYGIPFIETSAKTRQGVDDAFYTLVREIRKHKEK
Where [4] appears, read: Table 2, average of multiple runs of each compound.

Read-outs that look alike come from different tables or passages of the source.

T1 sequence (P01116 1-188 isoform P01116-2 G12D): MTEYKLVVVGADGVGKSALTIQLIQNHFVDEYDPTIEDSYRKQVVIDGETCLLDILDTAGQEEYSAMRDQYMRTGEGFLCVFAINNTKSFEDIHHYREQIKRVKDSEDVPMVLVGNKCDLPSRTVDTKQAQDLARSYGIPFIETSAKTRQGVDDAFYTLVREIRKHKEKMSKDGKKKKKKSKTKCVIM

By DC50 is commonly meant the concentration giving 50% degradation. One may read the IC50 as the midpoint of a concentration-inhibition curve. Take `C#Cc1c(F)ccc2cc(O)cc(-c3ncc4c(N5CC6CCC(C5)N6)nc(OCCN5CCC6(C5)CN(c5cc([C@H](C(=O)N7C[C@H](O)C[C@H]7C(=O)N[C@@H](C)c7ccc(-c8c(F)cccc8F)cc7)C(C)C)on5)C6)nc4c3F)c12` [Example 101, (2S,4R)-1-((2R)-2-(3-(6-(2-((4-(3,8-diazabicyclo[3.2.1]octan-3-yl)-7-(8-ethynyl-7-fluoro-3-hydroxynaphthalen-1-yl)-8-fluoropyrido[4,3-d]pyrimidin-2-yl)oxy)ethyl)-2,6-diazaspiro[3.4]octan-2-yl)isoxazol-5-yl)-3-methylbutanoyl)-N—((S)-1-(2′,6′-difluoro-[1,1′-biphenyl]-4-yl)ethyl)-4-hydroxypyrrolidine-2-carboxamide]: the DC50 in assay [1] came to 707 nM. The IC50 in assay [2] (setting [4]) amounted to 1790 nM; in assay [3] (setting [4]), 13 nM.

Take `CC(C)[C@H](C(=O)N1C[C@H](O)C[C@H]1C(=O)N[C@@H](C)c1ccc(-c2c(F)cc(F)cc2F)cc1)c1cc(N2CC3(CCN(CCOc4nc(N5CC6CCC(C5)N6)c5cc(Cl)c(-c6ccc(F)c7sc(N)c(C#N)c67)c(F)c5n4)CC3)C2)no1` [Example 67, (2S,4R)-1-((2S)-2-(3-(7-(2-((7-(2-amino-3-cyano-7-fluorobenzo[b]thiophen-4-yl)-4-(3,8-diazabicyclo[3.2.1]octan-3-yl)-6-chloro-8-fluoroquinazolin-2-yl)oxy)ethyl)-2,7-diazaspiro[3.5]nonan-2-yl)isoxazol-5-yl)-3-methylbutanoyl)-4-hydroxy-N-((S)-1-(2′,4′,6′-trifluoro-[1,1′-biphenyl]-4-yl)ethyl)pyrrolidine-2-carboxamide]: the DC50 in assay [1] is ≥ 10000 nM. Besides, the figures for the IC50 in assay [2] (setting [4]) and in assay [3] (setting [4]) were 5000 nM and 20 nM, respectively.

In the case of `Cc1ncsc1-c1ccc([C@H](C)NC(=O)[C@@H]2C[C@@H](O)CN2C(=O)[C@@H](NC(=O)CCOCCCN2CCC[C@H]2COc2nc(N3CC4CCC(C3)N4)c3cc(C(F)(F)F)c(-c4ccc(F)c5sc(N)c(C#N)c45)c(F)c3n2)C(C)(C)C)cc1` [Example 91, (2S,4R)-1-((2S)-2-(3-(3-((2S)-2-((((7S)-7-(2-amino-3-cyano-7-fluorobenzo[b]thiophen-4-yl)-4-(3,8-diazabicyclo[3.2.1]octan-3-yl)-8-fluoro-6-(trifluoromethyl)quinazolin-2-yl)oxy)methyl)pyrrolidin-1-yl)propoxy)propanamido)-3,3-dimethylbutanoyl)-4-hydroxy-N—((S)-1-(4-(4-methylthiazol-5-yl)phenyl)ethyl)pyrrolidine-2-carboxamide], the DC50 in assay [1] came out at 23 nM. Besides, the figures for the IC50 in assay [2] (setting [4]) and in assay [3] (setting [4]) were 23 nM and 8.2 nM, respectively.

`C#Cc1c(F)ccc2cc(O)cc(-c3ncc4c(N5CC6CCC(C5)N6)nc(OC[C@@H]5CCCN5CCCOCCC(=O)N[C@H](C(=O)N5C[C@H](O)C[C@H]5C(=O)N[C@@H](C)c5ccc(-c6c(F)cccc6F)cc5)C(C)(C)C)nc4c3F)c12` [Example 14, (2S,4R)-1-[(2S)-2-[3-[3-[(2S)-2-[[4-(3,8-diazabicyclo[3.2.1]octan-3-yl)-7-(8-ethynyl-7-fluoro-3-hydroxy-1-naphthyl)-8-fluoro-pyrido[4,3-d]pyrimidin-2-yl]oxymethyl]pyrrolidin-1-yl]propoxy]propanoylamino]-3,3-dimethyl-butanoyl]-N-[(1S)-1-[4-(2,6-difluorophenyl)phenyl]ethyl]-4-hydroxy-pyrrolidine-2-carboxamide]: in assay [1], the DC50 is 331 nM. The IC50 in assay [2] (Table 1) is 41.9 nM; in assay [2] (setting [4]), 41.9 nM; in assay [3] (Table 1), 9.4 nM; in assay [3] (setting [4]) it was 9.4 nM.

For `CC(C)[C@@H](C(=O)N1C[C@H](O)C[C@H]1C(=O)N[C@@H](C)c1ccc(-c2c(F)cccc2F)cc1)c1cc(OCC2CCN(CCOc3nc(N4CC5CCC(C4)N5)c4cc(C(F)(F)F)c(-c5ccc(F)c6sc(N)c(C#N)c56)c(F)c4n3)CC2)no1` [Example 18, (2S,4R)-1-((2R)-2-(3-((1-(2-((7-(2-amino-3-cyano-7-fluorobenzo[b]thiophen-4-yl)-4-(3,8-diazabicyclo[3.2.1]octan-3-yl)-8-fluoro-6-(trifluoromethyl)quinazolin-2-yl)oxy)ethyl)piperidin-4-yl)methoxy)isoxazol-5-yl)-3-methylbutanoyl)-N—((S)-1-(2′,6′-difluoro-[1,1′-biphenyl]-4-yl)ethyl)-4-hydroxypyrrolidine-2-carboxamide], in assay [1], the DC50 is 247 nM. Moreover, the IC50 amounted to 3140 nM in assay [2] (setting [4]) and 24.9 nM in assay [3] (setting [4]).

With `CC(C)[C@@H](C(=O)N1C[C@H](O)C[C@H]1C(=O)N[C@@H](C)c1ccc(-c2c(F)cc(F)cc2F)cc1)c1cc(OCC2(F)CCN(CCOc3nc(N4CC5CCC(C4)N5)c4cc(Cl)c(-c5ccc(F)c6sc(N)c(C#N)c56)c(F)c4n3)CC2)no1` [Example 69, (2S,4R)-1-((2R)-2-(3-((1-(2-((7-(2-amino-3-cyano-7-fluorobenzo[b]thiophen-4-yl)-4-(3,8-diazabicyclo[3.2.1]octan-3-yl)-6-chloro-8-fluoroquinazolin-2-yl)oxy)ethyl)-4-fluoropiperidin-4-yl)methoxy)isoxazol-5-yl)-3-methylbutanoyl)-4-hydroxy-N-((S)-1-(2′,4′,6′-trifluoro-[1,1′-biphenyl]-4-yl)ethyl)pyrrolidine-2-carboxamide], the DC50 in assay [1] is 525 nM. For the same molecule, the IC50 was > 10000 nM in assay [2] (setting [4]) and 35.2 nM in assay [3] (setting [4]).

Take `C[C@H](NC(=O)[C@@H]1C[C@@H](O)CN1C(=O)[C@@H](NC(=O)CCOCCCN1CCCC1COc1nc(N2CC3CCC(C2)N3)c2cc(Cl)c(-c3ccc(F)c4sc(N)c(C#N)c34)c(F)c2n1)C(C)(C)C)c1ccc(-c2c(F)cccc2F)cc1` (stereo partly drawn) [Example 19, (2S,4R)-1-((2S)-2-(3-(3-((2S)-2-((((7R)-7-(2-amino-3-cyano-7-fluorobenzo[b]thiophen-4-yl)-4-(3,8-diazabicyclo[3.2.1]octan-3-yl)-6-chloro-8-fluoroquinazolin-2-yl)oxy)methyl)pyrrolidin-1-yl)propoxy)propanamido)-3,3-dimethylbutanoyl)-N—((S)-1-(2′,6′-difluoro-[1,1′-biphenyl]-4-yl)ethyl)-4-hydroxypyrrolidine-2-carboxamide]: the 50% degradation concentration (DC50) in assay [1] amounted to 63.2 nM. The IC50 in assay [2] (setting [4]) came to 77.7 nM; in assay [3] (setting [4]), 7.67 nM.
